{"source": "patent US8778951B2", "about": "“Heteroaryl compounds and their uses” (Novartis AG, priority 2009, dated 2014)", "data": [{"molecular_target": "Cdk9/cyclinT1 (Homo sapiens (Human), UniProt P50750)", "sequence (P50750 whole entry)": "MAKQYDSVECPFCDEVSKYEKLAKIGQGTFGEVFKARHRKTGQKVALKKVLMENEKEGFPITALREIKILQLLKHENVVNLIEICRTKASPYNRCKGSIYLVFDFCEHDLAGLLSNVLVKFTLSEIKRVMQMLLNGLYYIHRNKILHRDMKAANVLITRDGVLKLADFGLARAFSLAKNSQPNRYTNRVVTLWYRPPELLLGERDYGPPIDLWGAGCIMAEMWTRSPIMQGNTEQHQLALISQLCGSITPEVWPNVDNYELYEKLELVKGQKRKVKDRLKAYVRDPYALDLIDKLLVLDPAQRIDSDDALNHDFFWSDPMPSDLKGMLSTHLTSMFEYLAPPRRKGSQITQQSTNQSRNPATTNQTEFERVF", "sequence (O60563 whole entry partner)": "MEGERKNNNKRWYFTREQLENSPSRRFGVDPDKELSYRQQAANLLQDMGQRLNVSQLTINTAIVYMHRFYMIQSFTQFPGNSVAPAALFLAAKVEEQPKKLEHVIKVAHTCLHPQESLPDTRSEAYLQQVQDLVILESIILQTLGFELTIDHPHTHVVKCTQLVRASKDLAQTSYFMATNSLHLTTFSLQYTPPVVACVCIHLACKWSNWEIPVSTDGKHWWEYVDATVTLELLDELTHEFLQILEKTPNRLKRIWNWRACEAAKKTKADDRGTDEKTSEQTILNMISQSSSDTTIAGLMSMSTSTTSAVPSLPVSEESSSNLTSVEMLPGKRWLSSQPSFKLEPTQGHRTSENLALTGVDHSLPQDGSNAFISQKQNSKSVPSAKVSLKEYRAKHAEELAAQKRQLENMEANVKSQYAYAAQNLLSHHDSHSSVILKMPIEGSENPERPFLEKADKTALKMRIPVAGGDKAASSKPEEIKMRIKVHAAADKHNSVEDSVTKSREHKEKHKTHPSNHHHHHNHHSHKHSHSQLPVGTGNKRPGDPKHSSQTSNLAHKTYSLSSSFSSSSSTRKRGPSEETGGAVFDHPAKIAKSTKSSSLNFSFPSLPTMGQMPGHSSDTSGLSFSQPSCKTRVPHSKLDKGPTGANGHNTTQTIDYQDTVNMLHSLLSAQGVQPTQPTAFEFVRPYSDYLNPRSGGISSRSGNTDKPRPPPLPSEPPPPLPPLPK", "assay": "Cdk9/CyclinT1 IMAP Protocol (fluorescence polarization kinase assay)", "assay_type": "biochemical", "conditions": "Table 2; generated using one of the two Cdk9/cyclinT1 assays (IMAP or Alpha Screen), not specified which; unit inferred", "how_it_was_run": "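Reaction used 4 nM Cdk9/cyclinT1, 100 nM 5TAMRA-cdk7tide peptide and 6 uM ATP in 100 mM Tris pH 7.2 with MgCl2, 0.01% Tween-20, 1 mM DTT and 2.5% DMSO, running 4.5 h. Phosphopeptide was captured by IMAP binding reagent for >1 h, then read by fluorescence polarization (ex 531/em 595 nm).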", "units": {"IC50": "µM"}, "values": [{"compound": "O[C@H]1CC[C@@H](Nc2cc(-c3cccc(NCc4cccc(F)c4)n3)c(Cl)cn2)C1", "note": "[Compound 183]", "IC50": 0.00794}, {"compound": "O[C@@H]1CC[C@H](Nc2cc(-c3cccc(NCc4cccc(F)c4)n3)c(Cl)cn2)C1", "note": "[Compound 184]", "IC50": 0.00911}, {"compound": "OCCCCNc1cc(-c2cccc(NCc3cccc(F)c3)n2)c(Cl)cn1", "note": "[Compound 186]", "IC50": 0.00794}, {"compound": "NCCCCNc1cc(-c2cccc(NCc3cc(F)cc(F)c3)n2)c(Cl)cn1", "note": "[Compound 188]", "IC50": 0.00794}, {"compound": "OCCCNc1cc(-c2cccc(NCc3cc(F)cc(F)c3)n2)c(Cl)cn1", "note": "[Compound 189]", "IC50": 0.00794}, {"compound": "COC[C@H]1CC[C@H](Nc2cc(-c3cccc(NCc4cccc(F)c4)n3)c(Cl)cn2)CC1", "note": "[Compound 190]", "IC50": 0.1}, {"compound": "N[C@@H]1CC[C@@H](Nc2cc(-c3cccc(NCc4cccc(F)c4)n3)c(Cl)cn2)C1", "note": "[Compound 191, N2′-((1R,3R)-3-aminocyclopentyl)-5′-chloro-N6-(3-fluorobenzyl)-2,4′-bipyridine-2′,6-diamine]", "IC50": 0.00794}, {"compound": "N[C@H]1CC[C@H](Nc2cc(-c3cccc(NCc4cccc(F)c4)n3)c(Cl)cn2)C1", "note": "[Compound 192]", "IC50": 0.00794}, {"compound": "COCCN[C@H]1CC[C@H](Nc2cc(-c3cccc(NCc4cc(F)cc(F)c4)n3)c(Cl)cn2)CC1", "note": "[Compound 193]", "IC50": 0.00794}, {"compound": "CO[C@H]1CC[C@H](Nc2cc(-c3cccc(NCc4cccc(F)c4)n3)c(Cl)cn2)CC1", "note": "[Compound 194]", "IC50": 0.0481}, {"compound": "NCC(O)CNc1cc(-c2cccc(NCc3cccc(F)c3)n2)c(Cl)cn1", "note": "(centres unmarked) [Compound 195]", "IC50": 0.0356}, {"compound": "N[C@H]1CC[C@H](Nc2cc(-c3cccc(NCc4cccc(F)c4)n3)c(F)cn2)CC1", "note": "[Compound 197]", "IC50": 0.00794}, {"compound": "CN(C)[C@H]1CC[C@H](Nc2cc(-c3cccc(NCc4cc(F)cc(F)c4)n3)c(Cl)cn2)CC1", "note": "[Compound 198]", "IC50": 0.00794}, {"compound": "OCCCN[C@H]1CC[C@H](Nc2cc(-c3cccc(NCc4cccc(F)c4)n3)c(Cl)cn2)CC1", "note": "[Compound 200]", "IC50": 0.00794}, {"compound": "N[C@H]1CC[C@H](Nc2cc(-c3cncc(NCC4CCOCC4)n3)c(Cl)cn2)CC1", "note": "[Compound 203, trans-N1-(5-chloro-4-(6-((tetrahydro-2H-pyran-4-yl)methyl)aminopyrazin-2-yl)pyridin-2-yl)cyclohexane-1,4-diamine]", "IC50": 0.00794}, {"compound": "CN(C)C(=O)[C@H]1CC[C@@H](Nc2cc(-c3cccc(NCc4cccc(F)c4)n3)c(Cl)cn2)C1", "note": "[Compound 205, (1S,3R)-3-(5′-chloro-6-(3-fluorobenzylamino)-2,4′-bipyridin-2′-yl-amino)-N,N-dimethylcyclopentanecarboxamide]", "IC50": 0.0175}, {"compound": "O[C@H]1CC[C@H](Nc2cc(-c3cncc(NCC4CCOCC4)n3)c(Cl)cn2)CC1", "note": "[Compound 208, trans-4-(5-chloro-4-(6-((tetrahydro-2H-pyran-4-yl)methyl)aminopyrazin-2-yl)pyridin-2-yl-amino)cyclohexanol]", "IC50": 0.00794}, {"compound": "CN1CCC(CNc2cc(-c3cncc(NCC4CCOCC4)n3)c(Cl)cn2)CC1", "note": "[Compound 209]", "IC50": 0.183}, {"compound": "OCCNc1cc(-c2cncc(NCC3CCOCC3)n2)c(Cl)cn1", "note": "[Compound 210]", "IC50": 0.086}, {"compound": "Cc1cnc(N[C@H]2CC[C@H](N)CC2)cc1-c1cccc(NCc2cccc(F)c2)n1", "note": "[Compound 211, N2′-(trans-4-aminocyclohexyl)-N6-(3-fluorobenzyl)-5′-methyl-2,4′-bipyridine-2′,6-diamine]", "IC50": 0.021}, {"compound": "N[C@H]1CC[C@H](Nc2cc(-c3cccc(N[C@@H]4CC45CCOCC5)n3)c(Cl)cn2)CC1", "note": "[Compound 212]", "IC50": 0.0546}, {"compound": "O=C([C@H]1CC[C@@H](Nc2cc(-c3cccc(NCc4cccc(F)c4)n3)c(Cl)cn2)C1)N1CCCC1", "note": "[Compound 213]", "IC50": 0.0142}, {"compound": "CC(=O)N1CCC[C@H](CNc2cccc(-c3cc(N[C@H]4CC[C@H](N)CC4)ncc3Cl)n2)C1", "note": "[Compound 215, 1-((R)-3-((2′-(trans-4-aminocyclohexylamino)-5′-chloro-2,4′-bipyridin-6-yl-amino)methyl)piperidin-1-yl)ethanone]", "IC50": 0.0655}, {"compound": "CC(=O)N1CCC[C@H](CNc2cccc(-c3ccnc(N[C@H]4CC[C@H](N)CC4)c3)n2)C1", "note": "[Compound 216, 1-((R)-3-((2′-(trans-4-aminocyclohexylamino)-2,4′-bipyridin-6-yl-amino)methyl)piperidin-1-yl)ethanone]", "IC50": 0.138}, {"compound": "CC(=O)N1CCC[C@@H](CNc2cccc(-c3cc(N[C@H]4CC[C@H](N)CC4)ncc3Cl)n2)C1", "note": "[Compound 217]", "IC50": 0.0373}, {"compound": "CC(=O)N1CCC[C@@H](CNc2cccc(-c3ccnc(N[C@H]4CC[C@H](N)CC4)c3)n2)C1", "note": "[Compound 218]", "IC50": 0.128}, {"compound": "N[C@H]1CC[C@H](Nc2cc(-c3cnc(Cl)c(NCC4CCOCC4)n3)c(Cl)cn2)CC1", "note": "[Compound 221]", "IC50": 0.00795}, {"compound": "O[C@H]1CC[C@H](Nc2cc(-c3cnc(Cl)c(NCC4CCOCC4)n3)c(Cl)cn2)CC1", "note": "[Compound 222, trans-4-(5-chloro-4-(5-chloro-6-((tetrahydro-2H-pyran-4-yl)methyl)aminopyrazin-2-yl)pyridin-2-yl-amino)cyclohexanol]", "IC50": 0.00795}, {"compound": "N[C@H]1CC[C@H](Nc2cc(-c3nc(NCC4CCOCC4)cnc3Cl)c(Cl)cn2)CC1", "note": "[Compound 223, trans-N1-(5-chloro-4-(3-chloro-6-((tetrahydro-2H-pyran-4-yl)methyl)aminopyrazin-2-yl)pyridin-2-yl)cyclohexane-1,4-diamine]", "IC50": 0.00795}, {"compound": "NC(=O)c1ncc(-c2cc(N[C@H]3CC[C@H](N)CC3)ncc2Cl)nc1NCC1CCOCC1", "note": "[Compound 224, 5-(2-(trans-4-aminocyclohexylamino)-5-chloropyridin-4-yl)-3-((tetrahydro-2H-pyran-4-yl)methyl)aminopyrazine-2-carboxamide]", "IC50": 0.0919}, {"compound": "Clc1cnc(N[C@H]2CC[C@H](N3CCCC3)CC2)cc1-c1cnc(Cl)c(NCC2CCOCC2)n1", "note": "[Compound 225, 3-chloro-6-(5-chloro-2-(trans-4-(pyrrolidin-1-yl)cyclohexylamino)pyridin-4-yl)-N-((tetrahydro-2H-pyran-4-yl)methyl)pyrazin-2-amine]", "IC50": 0.00795}, {"compound": "Nc1ncc(-c2cc(N[C@H]3CC[C@H](N)CC3)ncc2Cl)nc1NCC1CCOCC1", "note": "[Compound 226, 6-(2-(trans-4-aminocyclohexylamino)-5-chloropyridin-4-yl)-N2-((tetrahydro-2H-pyran-4-yl)methyl)pyrazine-2,3-diamine]", "IC50": 0.00795}, {"compound": "Nc1ncc(-c2cc(N[C@H]3CC[C@H](O)CC3)ncc2Cl)nc1NCC1CCOCC1", "note": "[Compound 227]", "IC50": 0.0259}, {"compound": "N[C@H]1CC[C@H](Nc2cc(-c3cncc(NCC4CCCOC4)n3)c(Cl)cn2)CC1", "note": "(some centres unmarked) [Compound 228]", "IC50": 0.00795}, {"compound": "O[C@H]1CC[C@H](Nc2cc(-c3cncc(NCC4CCCOC4)n3)c(Cl)cn2)CC1", "note": "(some centres unmarked) [Compound 229]", "IC50": 0.00795}, {"compound": "Cc1ncc(-c2cc(N[C@H]3CC[C@H](N)CC3)ncc2Cl)nc1NCC1CCOCC1", "note": "[Compound 231, trans-N1-(5-chloro-4-(5-methyl-6-((tetrahydro-2H-pyran-4-yl)methyl)aminopyrazin-2-yl)pyridin-2-yl)cyclohexane-1,4-diamine]", "IC50": 0.0149}, {"compound": "N[C@H]1CC[C@H](Nc2cc(-c3nc(NCC4CCOCC4)cnc3Cl)ccn2)CC1", "note": "[Compound 232]", "IC50": 0.00795}, {"compound": "Cc1ncc(NCC2CCOCC2)nc1-c1cc(N[C@H]2CC[C@H](N)CC2)ncc1Cl", "note": "[Compound 233, trans-N1-(5-chloro-4-(3-methyl-6-((tetrahydro-2H-pyran-4-yl)methyl)aminopyrazin-2-yl)pyridin-2-yl)cyclohexane-1,4-diamine]", "IC50": 0.00795}, {"compound": "CCc1ncc(-c2cc(N[C@H]3CC[C@H](N)CC3)ncc2Cl)nc1NCC1CCOCC1", "note": "[Compound 241, trans-N^1-(5-chloro-4-(5-ethyl-6-((tetrahydro-2H-pyran-4-yl)methyl)aminopyrazin-2-yl)pyridin-2-yl)cyclohexane-1,4-diamine]", "IC50": 0.0618}, {"compound": "OC[C@H]1CC[C@H](Nc2cc(-c3cncc(NCC4CCOCC4)n3)c(Cl)cn2)CC1", "note": "[Compound 242]", "IC50": 0.0154}, {"compound": "COCCN[C@H]1CC[C@H](Nc2cc(-c3cncc(NCC4CCOCC4)n3)c(Cl)cn2)CC1", "note": "[Compound 243, trans-N1-(5-chloro-4-(6-((tetrahydro-2H-pyran-4-yl)methyl)aminopyrazin-2-yl)pyridin-2-yl)-N4-(2-methoxyethyl)cyclohexane-1,4-diamine]", "IC50": 0.00795}, {"compound": "CC(=O)N[C@H]1CC[C@H](Nc2cc(-c3cncc(NCC4CCOCC4)n3)c(Cl)cn2)CC1", "note": "[Compound 244, N-(trans-4-(5-chloro-4-(6-((tetrahydro-2H-pyran-4-yl)methyl)aminopyrazin-2-yl)pyridin-2-yl-amino)cyclohexyl)acetamide]", "IC50": 0.079}, {"compound": "CS(=O)(=O)N[C@H]1CC[C@H](Nc2cc(-c3cncc(NCC4CCOCC4)n3)c(Cl)cn2)CC1", "note": "[Compound 245]", "IC50": 0.0534}, {"compound": "NC[C@H]1CC[C@H](Nc2cc(-c3cncc(NCC4CCOCC4)n3)c(Cl)cn2)CC1", "note": "[Compound 246]", "IC50": 0.0115}, {"compound": "CC(=O)NC[C@H]1CC[C@H](Nc2cc(-c3cncc(NCC4CCOCC4)n3)c(Cl)cn2)CC1", "note": "[Compound 247]", "IC50": 0.0202}, {"compound": "CN(CC1CCOCC1)c1cncc(-c2cc(N[C@H]3CC[C@H](N)CC3)ncc2Cl)n1", "note": "[Compound 248]", "IC50": 0.0106}, {"compound": "CN(CC1CCOCC1)c1cncc(-c2cc(N[C@H]3CC[C@H](CN)CC3)ncc2Cl)n1", "note": "[Compound 249, 6-(2-(trans-4-(aminomethyl)cyclohexylamino)-5-chloropyridin-4-yl)-N-methyl-N-((tetrahydro-2H-pyran-4-yl)methyl)pyrazin-2-amine]", "IC50": 0.0318}, {"compound": "CN(CC1CCOCC1)c1cncc(-c2cc(N[C@H]3CC[C@H](O)CC3)ncc2Cl)n1", "note": "[Compound 250]", "IC50": 0.0284}, {"compound": "CN(CC1CCOCC1)c1cncc(-c2cc(N[C@H]3CC[C@H](CO)CC3)ncc2Cl)n1", "note": "[Compound 251]", "IC50": 0.0432}, {"compound": "COCCN[C@H]1CC[C@H](Nc2cc(-c3cncc(N(C)CC4CCOCC4)n3)c(Cl)cn2)CC1", "note": "[Compound 252]", "IC50": 0.00794}]}]}
